Converted amounts (≈) assume the structure as drawn.
What was measured:
P. aeruginosa MSC01035 = assay: MIC, agar plate dilution method, P. aeruginosa MSC01035; type: cell-based, Pseudomonas aeruginosa; conditions: P. aeruginosa MSC01035, ABK-resistant
In short: (§1)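 Read-out is the lowest compound concentration inhibiting growth (MIC, μg/mL), obtained by the agar plate dilution procedure of the Japan Society of Chemotherapy.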

S. marcescens TH-0447 = assay: MIC, agar plate dilution method, S. marcescens TH-0447; type: cell-based, Serratia marcescens; conditions: S. marcescens TH-0447, AMK-resistant
In short: as §1

P. aeruginosa PAO1/GN315 = assay: MIC, agar plate dilution method, P. aeruginosa PAO1/GN315; type: cell-based, Pseudomonas aeruginosa; conditions: P. aeruginosa PAO1/GN315, AMK-resistant
In short: as §1

S. marcescens GN6944 = assay: MIC, agar plate dilution method, S. marcescens GN6944; type: cell-based, Serratia marcescens; conditions: S. marcescens GN6944, GM-resistant
In short: as §1

S. aureus RN4220 = assay: MIC, agar plate dilution method, S. aureus RN4220; type: cell-based, Staphylococcus aureus; conditions: S. aureus RN4220, Sensitive bacterium
In short: as §1

[1] = test system: K. pneumoniae ATCC BAA-1705; assay: MIC, agar plate dilution method, K. pneumoniae ATCC BAA-1705; type: cell-based, Klebsiella pneumoniae; conditions: K. pneumoniae ATCC BAA-1705, KPC-producing strain
In short: as §1

E. coli JM109/pMW218 = assay: MIC, agar plate dilution method, E. coli JM109/pMW218; type: cell-based, Escherichia coli; conditions: E. coli JM109/pMW218, Sensitive bacterium
In short: as §1

[2] = test system: K. pneumoniae ATCC BAA-2146; assay: MIC, agar plate dilution method, K. pneumoniae ATCC BAA-2146; type: cell-based, Klebsiella pneumoniae; conditions: K. pneumoniae ATCC BAA-2146, NDM-producing strain
In short: as §1

P. aeruginosa PAO1 = assay: MIC, agar plate dilution method, P. aeruginosa PAO1; type: cell-based, Pseudomonas aeruginosa; conditions: P. aeruginosa PAO1, Sensitive bacterium
In short: as §1

P. aeruginosa MSC17707 = assay: MIC, agar plate dilution method, P. aeruginosa MSC17707; type: cell-based, Pseudomonas aeruginosa; conditions: P. aeruginosa MSC17707, AMK-resistant
In short: as §1

S. aureus RN4220/pMS520 = assay: MIC, agar plate dilution method, S. aureus RN4220/pMS520; type: cell-based, Staphylococcus aureus; conditions: S. aureus RN4220/pMS520, MRSA
In short: as §1

S. aureus MF490 = assay: MIC, agar plate dilution method, S. aureus MF490; type: cell-based, Staphylococcus aureus; conditions: S. aureus MF490, MRSA
In short: as §1

E. faecium ATCC19434 = assay: MIC, agar plate dilution method, E. faecium ATCC19434; type: cell-based, Enterococcus faecium; conditions: E. faecium ATCC19434
In short: as §1

[3] = test system: A. baumannii ATCC BAA-1710; assay: MIC, agar plate dilution method, A. baumannii ATCC BAA-1710; type: cell-based, Acinetobacter baumannii; conditions: A. baumannii ATCC BAA-1710, MDRA
In short: as §1

Compound | minimal inhibitory concentration (MIC) (P. aeruginosa MSC01035) | minimal inhibitory concentration (MIC) (S. marcescens TH-0447) | minimal inhibitory concentration (MIC) (P. aeruginosa PAO1/GN315) | minimal inhibitory concentration (MIC) (S. marcescens GN6944) | minimal inhibitory concentration (MIC) (S. aureus RN4220) | minimal inhibitory concentration (MIC) [1] | minimal inhibitory concentration (MIC) (E. coli JM109/pMW218) | minimal inhibitory concentration (MIC) [2] | minimal inhibitory concentration (MIC) (P. aeruginosa PAO1) | minimal inhibitory concentration (MIC) (P. aeruginosa MSC17707) | minimal inhibitory concentration (MIC) (S. aureus RN4220/pMS520) | minimal inhibitory concentration (MIC) (S. aureus MF490) | minimal inhibitory concentration (MIC) (E. faecium ATCC19434) | minimal inhibitory concentration (MIC) [3]
CNC1C(OC2OC(CO)C(N)CC2O)OC2CC(N)C(OC3CCC(N)CC3N)OC2C1O (stereo not shown) [Compound N7, 5,6,3″-trideoxyapramycin] | 8 µg/mL (≈ 16.3 µM) | 8 µg/mL (≈ 16.3 µM) | 4 µg/mL (≈ 8.14 µM) | 4 µg/mL (≈ 8.14 µM) | 2 µg/mL (≈ 4.07 µM) | 1 µg/mL (≈ 2.03 µM) | 1 µg/mL (≈ 2.03 µM) | 1 µg/mL (≈ 2.03 µM) | 4 µg/mL (≈ 8.14 µM) | 8 µg/mL (≈ 16.3 µM) | 2 µg/mL (≈ 4.07 µM) | 8 µg/mL (≈ 16.3 µM) | 16 µg/mL (≈ 32.5 µM) | 8 µg/mL (≈ 16.3 µM)
CNC1C(OC2OC(CO)C(N)CC2O)OC2CC(N)C(OC3C(N)CC(N)C(O)C3N)OC2C1O (stereo not shown) [Compound N9, 5-amino-5,3″-dideoxy-5-epiapramycin] | 8 µg/mL (≈ 15.3 µM) | 8 µg/mL (≈ 15.3 µM) | 4 µg/mL (≈ 7.65 µM) | 8 µg/mL (≈ 15.3 µM) | 2 µg/mL (≈ 3.83 µM) | 2 µg/mL (≈ 3.83 µM) | 1 µg/mL (≈ 1.91 µM) | 1 µg/mL (≈ 1.91 µM) | 4 µg/mL (≈ 7.65 µM) | 8 µg/mL (≈ 15.3 µM) | 2 µg/mL (≈ 3.83 µM) | 8 µg/mL (≈ 15.3 µM) | 16 µg/mL (≈ 30.6 µM) | 8 µg/mL (≈ 15.3 µM)
CN[C@@H]1[C@@H](O[C@@H]2C[C@H](O)[C@H](N)[C@@H](CO)O2)O[C@H]2C[C@@H](N)[C@@H](O[C@H]3[C@@H](F)[C@@H](O)[C@H](N)C[C@@H]3N)O[C@@H]2[C@@H]1O [Compound O5, 5,2″-dideoxy-5,3″-diepi-5-fluoroapramycin] | 4 µg/mL (≈ 7.61 µM) | 4 µg/mL (≈ 7.61 µM) | 2 µg/mL (≈ 3.81 µM) | 2 µg/mL (≈ 3.81 µM) | 1 µg/mL (≈ 1.9 µM) | 1 µg/mL (≈ 1.9 µM) | 0.5 µg/mL (≈ 0.951 µM) | 0.5 µg/mL (≈ 0.951 µM) | 2 µg/mL (≈ 3.81 µM) | 4 µg/mL (≈ 7.61 µM) | 1 µg/mL (≈ 1.9 µM) | 4 µg/mL (≈ 7.61 µM) | 8 µg/mL (≈ 15.2 µM) | 4 µg/mL (≈ 7.61 µM)
CN[C@@H]1[C@@H](O[C@H]2O[C@H](CO)[C@@H](N)[C@@H](O)[C@H]2O)O[C@H]2C[C@@H](N)[C@@H](O[C@H]3[C@@H](O)[C@@H](O)[C@H](N)C[C@@H]3N)O[C@@H]2[C@@H]1O [Compound P4, 5,3″-diepiapramycin] | 8 µg/mL (≈ 14.8 µM) | 8 µg/mL (≈ 14.8 µM) | 4 µg/mL (≈ 7.41 µM) | 8 µg/mL (≈ 14.8 µM) | 2 µg/mL (≈ 3.71 µM) | 2 µg/mL (≈ 3.71 µM) | 2 µg/mL (≈ 3.71 µM) | 2 µg/mL (≈ 3.71 µM) | 4 µg/mL (≈ 7.41 µM) | 4 µg/mL (≈ 7.41 µM) | 2 µg/mL (≈ 3.71 µM) | 4 µg/mL (≈ 7.41 µM) | 16 µg/mL (≈ 29.7 µM) | 8 µg/mL (≈ 14.8 µM)
CNC1C(OC2OC(C)C(N)C(O)C2O)OC2CC(N)C(OC3C(N)CC(N)CC3O)OC2C1O (stereo not shown) [Compound Q4, 6,6″-dideoxy-5-epiapramycin] | 8 µg/mL (≈ 15.8 µM) | 4 µg/mL (≈ 7.88 µM) | 4 µg/mL (≈ 7.88 µM) | 4 µg/mL (≈ 7.88 µM) | 2 µg/mL (≈ 3.94 µM) | 1 µg/mL (≈ 1.97 µM) | 0.5 µg/mL (≈ 0.985 µM) | 1 µg/mL (≈ 1.97 µM) | 4 µg/mL (≈ 7.88 µM) | 8 µg/mL (≈ 15.8 µM) | 1 µg/mL (≈ 1.97 µM) | 4 µg/mL (≈ 7.88 µM) | 8 µg/mL (≈ 15.8 µM) | 8 µg/mL (≈ 15.8 µM)

Source: US11135234B2, “Effective aminoglycoside antibiotic for multidrug-resistant bacteria” (MICROBIAL CHEMISTRY RESEARCH FOUNDATION, priority 2015, dated 2021)
